Patent US8426452B2, “Process for the treatment and prevention of diseases caused by fungi” (priority 2008, dated 2013)
Read-outs that look alike come from different tables or passages of the source.

Tests used:
[1] = system: S. cerevisiae strain AH109; test: Growth inhibition of S. cerevisiae strain AH109 in YPD medium (turbidity, A600)
Procedure: (§1) AH109 cells or ATCC 96901 cells were inoculated into 200.0 ml of YPD to obtain an initial OD600 reading of 0.005 on a spectrophotometer. […] The yeast suspensions were placed on a shaking incubator set at 200 rpm and 30° C. for 18-24 hr (S. cerevisiae) or 10-12 hr (C. albicans), and then the extent of fungal growth was assessed by measuring the sample absorbance at 600 nm (A600 nm) on a spectrophotometer. The effect of each concentration of antifungal agent was tested in triplicate.

[2] = system: A-431 human skin cells
Procedure: Cells were then incubated for 48 hr at 37° C. After incubation, the MTT viability assay was performed. This assay measures the conversion of 3-[4,5-dimethylthiazol-2-yl]-2,5-diphenyl tetrazolium bromide (MTT) into a colored product in living cells.
The MTT assay was used to determine cell viability and the LC50 value for each compound was evaluated.

[3] = system: C. albicans strain ATCC 96901; test: Broth microdilution susceptibility testing (MIC), C. albicans strain ATCC 96901; settings: fluconazole-resistant C. albicans strain ATCC 96901, RPMI medium pH 7.0, 48 hr, 30° C.; MIC = lowest concentration with 100% growth inhibition
Procedure: (§2) Broth Microdilution Susceptibility Testing of C. albicans:
(§3) Note that all susceptibility assays were performed in triplicate wells using sterile flat-bottom 24-well microtiter plates.

[4] = system: C. albicans strain ATCC 96901; test: Growth inhibition of fluconazole-resistant C. albicans strain ATCC 96901 in YPD medium (turbidity, A600)
Procedure: as §1

[5] = system: C. albicans strain S2; test: Broth microdilution susceptibility testing (MIC), C. albicans strain S2; settings: fluconazole-resistant C. albicans strain S2, RPMI medium pH 7.0, 48 hr, 30° C.; MIC = lowest concentration with 100% growth inhibition
Procedure: as §2, §3

[6] = Saccharomyces cerevisiae, AH109, AH109, read-out: IC50, concentration of drug required to inhibit the growth of yeast cells by 50%
[7] = Candida albicans, ATCC96901, read-out: IC50, concentration of drug required to inhibit the growth of yeast cells by 50%

Row | SMILES | IC50 [1, 6] | Toxicity to A-431 human skin cells (MTT viability, LC50 evaluated) [2] | MIC compared with fluconazole [3] | IC50 [4, 7] | MIC compared with fluconazole [5] | IC50 ([1]; read-out: IC50, concentration of drug required to inhibit the growth of yeast cells by 50%, S. cerevisiae AH109, YPD medium, 18-24 hr, 30° C.) | IC50 ([4]; read-out: IC50, concentration of drug required to inhibit the growth of yeast cells by 50%, fluconazole-resistant C. albicans ATCC 96901, YPD medium, 10-12 hr, 30° C.)
1 | O=C1c2ccccc2[Se](=O)N1c1ccccc1 (stereo not drawn) [ebselen se-oxide, 2-phenyl-1,2-benzisoselenazol-3(2H)-one 1-oxide] | 2100 nM | neither compound was toxic | lower MIC values, than fluconazole | 4500 nM | lower MIC values, than fluconazole | – | –
2 | CCC(C)n1ncn(-c2ccc(N3CCN(c4ccc(OCC5COC(Cn6cncn6)(c6ccc(Cl)cc6Cl)O5)cc4)CC3)cc2)c1=O (stereo not drawn) [itraconazole] | 1130 nM | – | – | 480 nM | – | – | –
3 | OC(Cn1cncn1)(Cn1cncn1)c1ccc(F)cc1F [fluconazole] | 53000 nM | – | – | 460000 nM | – | – | –
4 | CC(=O)N1CCN(c2ccc(OCC3COC(Cn4ccnc4)(c4ccc(Cl)cc4Cl)O3)cc2)CC1 (stereo not drawn) [ketoconazole] | 540 nM | – | – | 210 nM | – | – | –
5 | O=c1c2ccccc2[se]n1-c1ccccc1 [ebselen, 2-phenyl-1,2-benzisoselenazol-3(2H)-one] | 4600 nM | neither compound was toxic | lower MIC values, than fluconazole | 5830 nM | lower MIC values, than fluconazole | – | –
6 | C[C@@H]1[C@H](O)[C@@H](C)/C=C/C=C/C=C/C=C/C=C/C=C/C=C/[C@H](O[C@@H]2O[C@H](C)[C@@H](O)[C@H](N)[C@@H]2O)C[C@@H]2O[C@](O)(C[C@@H](O)C[C@@H](O)[C@H](O)CC[C@@H](O)C[C@@H](O)CC(=O)O[C@H]1C)C[C@H](O)[C@H]2C(=O)O [amphotericin B] | – | – | – | – | – | 30 nM | 230 nM
